From PMC3769177 (Bioorganic & medicinal chemistry letters, 2013)

System: RD (embryonal) rhabdomyosarcoma cell line
Experiment: CellTiter-Glo Luminescent Cell Viability Assay, RD cells
Format: cell-based
Conditions: 48 hours

CN1CCN(CCOc2cc(OC3CCOCC3)c3c(Nc4c(Cl)ccc5c4OCO5)ncnc3c2)CC1 [Saracatinib]
IC50[RD], inhibition of cell survival: did not reach the IC50
